System: OCI-AML3 cells
Assay: Proliferation (spheroid) assay, OCI-AML3
Assay type: cell-based
Conditions: Homo sapiens, OCI-AML-3, 192 h; 8 days; read-out: spheroid assay_OCI-AML3 IC50
Protocol: The anti-proliferative effect of menin/MLL protein/protein interaction inhibitor test compounds was assessed in human leukemia cell lines. The cell line MOLM14 harbors a MLL translocation and expresses the MLL fusion protein MLL-AF9, respectively, as well as the wildtype protein from the second allele. OCI-AML3 cells that carry the NPM1c gene mutation were also tested. […] KO-52 was used as a control cell line containing two MLL (KMT2A) wildtype alleles in order to exclude compounds that display general cytotoxic effects.
MOLM14 cells were cultured in RPMI-1640 (Sigma Aldrich) supplemented with 10% heat-inactivated fetal bovine serum (HyClone), 2 mM L-glutamine (Sigma Aldrich) and 50 μg/ml gentamycin (Gibco). KO-52 and OCI-AML3 cell lines were propagated in alpha-MEM (Sigma Aldrich) supplemented with 20% heat-inactivated fetal bovine serum (HyClone), 2 mM L-glutamine (Sigma Aldrich) and 50 μg/ml gentamycin (Gibco).
In order to assess the anti-proliferative effects, 200 MOLM14 cells, 200° C. […] Spheroid like growth was measured in real-time by live-cell imaging (IncuCyteZOOM, Essenbio, 4× objective) acquiring images at day 8. Confluence (%) as a measure of spheroid size was determined using an integrated analysis tool.
In order to determine the effect of the test compounds over time, the confluence in each well as a measure of spheroid size, was calculated. […]

## CC(=O)N1CCC(CN2CC[C@@H](Cc3cn(-c4ccc(F)cc4C(=O)N(C)C(C)C)c4cncc(C)c34)C2)CC1 [Compound 51]
  IC50: 24 nM

Reference: patent US20260191838A1, “COMBINATIONS COMPRISING A MENIN-MLL INHIBITOR AND A BCL-2 INHIBITOR” (JANSSEN PHARMACEUTICA NV, priority 2022, published 2026)
